According to PMC9296036, “A peptide interfering with the dimerization of oncogenic KITENIN protein and its stability suppresses colorectal tumour progression” (Clinical and Translational Medicine, 2022):
Ends that are not written are not given here.

Assay: Detection of KDIP and truncated forms in tumour and liver tissue by LC-MS/MS (MRM) after intravenous injection
Type: in vivo, mouse
Conditions: tissues collected 20 min after fifth intravenous injection of KDIP 5 mg/kg, below the limit of detection
Procedure: At 20 min after fifth intravenous injection of KDIP, tumour and liver tissues were collected, immediately frozen using liquid nitrogen and ground with a pestle and mortar. One part of resultant powder by weight was homogenized with two parts of lysis buffer containing 8‐M urea, 25‐mM Tris–HCl (pH 8.5) by volume and was placed in Eppendorf tubes. This lysate was sonicated three times for 2 s with 2‐s intervals of rest at 20% amplitude on ice. Insoluble debris was removed by obtaining supernatant after centrifugation at 14 000 g, 4°C for 15 min.
Peptide extraction from serum or tissue lysate was performed by solid‐phase extraction using Oasis HLB Cartridge 1‐cm^3 (30 mg). HLB cartridges were conditioned using ACN (1 ml) and 50% ACN, .5% FA (1 ml), followed by equilibration using .5% FA (2 ml). A volume of 10‐μl serum and 20 μl of tissue lysate were added by .5% FA to be 1 ml and were loaded on equilibrated cartridges. Cartridges were washed with .5% FA (3 ml), and then peptide was eluted by 50% ACN, .5% FA (500 μl). Eluates were vacuum‐dried using Speed‐Vac and were stored at −80°C until use. Dried samples were reconstituted in .5% FA 50 and 5 μl of sample was loaded on column for LC–MS/MS analysis.
Each sample was analysed using an Agilent 1100 Series high‐performance liquid chromatography pump (Agilent Technologies, USA) coupled to an LTQ linear ion trap mass spectrometer (Thermo Finnigan, USA). Separation of peptide was carried out on a homemade C18‐fused silica column (100‐μm internal diameter) with nano‐electrospray ionization interface. […] Peptide was quantified by multiple reaction monitoring (MRM) in positive ion mode, with a spray voltage of 2.3 kV. […] Furthermore, truncated forms ([…], […]) of KDIP that were detected during stability test were also analysed by following transitions: 468.5 → 404.8 (b16 ^+5), 468.5 → 444.85 (b18 ^+5), 468.5 → 505.7 (b16 ^+4), 468.5 → 551.35 (b18 + H2O^+4), 468.5 → 555.7 (b18 ^+4), 528.45 → 448.85 (b14 ^+4), 528.45 → 499.0 (b16 ^+4), 528.45 → 598.15 (b14 ^+3), 528.45 → 659.25 (b16 + H2O^+3) and 528.45 → 664.95 (b16 ^+3). […]

Sequence: YARVRRRGPRRWRLVSDEAV [KDIP]
- detection in regressed tumour tissues or liver by mass spectrometry: not detected
